Values belong to the molecule of their own block, whether it stands above or below them.
Assays:
[1] = test system: T1, CpomOR22; assay: SSR dose response and GC-SSR in transgenic Drosophila ab3A neurons; parameters: species or system Cydia pomonella
T1 construct: gene OR22

[2] = test system: T2, CpomOR22; assay: two-electrode voltage clamp, Xenopus oocytes, dose response; format: cell-based, Cydia pomonella
T2 construct: gene OR22; with CpomOrco
From the text: two-electrode voltage clamp, Xenopus oocytes, dose response on CpomOR22 | CpomOR22 dose responsiveness to undecanal and γ-undecalactone across five orders of magnitude

[3] = test system: T2, CpomOR22; assay: two-electrode voltage clamp, Xenopus oocytes, dose response; also GC-SSR; format: cell-based, Cydia pomonella

EC50 [1]: 2.903 ± 1.709 µg
SMILES: CCCC/C=C\CCCCC=O [(Z)−6-undecenal]

SMILES: CCCCCCCC1CCC(=O)O1 (stereo not drawn) [γ-undecalactone]
EC50 [2]: 8.4 µM

EC50 [3]: 16.7 µM
SMILES: CCCCCCCCCCC=O [undecanal]

— article PMC11861427, “Functional Characterization of a Female-Biased Chemoreceptor of the Codling Moth (Cydia pomonella) Responding to Aldehydes and Other Volatile Compounds” (Journal of Chemical Ecology, 2025)
